# Patent US5332531A, “Extracting metal ions with diphosphonic acid, or derivative thereof” (priority 1992, dated 1994)
# Structures can show the parent of a compound that is named as a salt. Where two headings read alike, the source gives them in different places.
# Experiments:
# [1] = 1 M ionic strength, included for comparison; cited from earlier work
# [2] = format: physicochemical; settings: for resistance to degradation: mild thermal and/or oxidation conditions
# Protocol: (§1) In addition, compounds were screened for their ability to readily decompose. Thermal degradation of the thermodynamically-unstable complexing agents was performed by heating the complexing agent in 8M HNO3 at 100° C. The thermal degradation of the compounds were followed by analysis via ^1 H, ^13 C and ^31 P NMR (nuclear magnetic resonance) spectroscopy. Furthermore, the water-solubility of metal ion complexes formed with the inventive complexing agents was determined by using macroquantities of neodymium (III), i.e., Nd(III); thorium (IV), i.e., Th(IV), and uranium (VI), i.e., U(VI).
# As a result, autodecomposition is observed when the thermodynamically-unstable complexing agents of the present invention complex with metal ions such as ruthenium or tungsten.
# (§2) After synthesis, the thermodynamically-unstable complexing agents of the present invention were tested for thermal stability and susceptibility to oxidation by using ^1 H, ^13 C and ^31 P NMR spectroscopy. Furthermore, the acid dissociation constants, i.e., the pKa values, of the thermodynamically-unstable complexing agents were determined by standard potentiometric titration methods. Finally, the thermodynamically-unstable diphosphonic acid complexing agents of the present invention were analyzed with respect to their ability to complex metal ions and with respect to the aqueous solubility of the resulting metal ion complexes. In addition, the solubility of the uncomplexed thermodynamically-unstable complexing agents was determined by using macro-concentrations of neodymium(III) as a substitute for the trivalent actinides; of thorium(IV), as a substitute for plutonium(IV) and neptunium(IV); of uranyl(VI), as representative for all actinide(VI) ions; of iron(III); and of zirconium. The variables included in this solubility determination were the thermally-unstable complexing agent-to-metal ion ratio, the metal ion concentration, and the pH.
# More particularly, ^1 H, ^13 C, and ^31 P NMR spectroscopy was used to elucidate and measure the thermal degradation pathways of the thermally-unstable complexing agents of structural formula I, and to evaluate synthesis efforts. For example, ^31 P NMR spectroscopy is especially valuable in identifying the type of phosphorus compound that is synthesized or the type of phosphorous compound produced upon degradation of the thermally-unstable complexing agent. As a result, ^31 P NMR spectroscopy provides a method of showing that a particular diphosphonic acid compound actually was synthesized.
# [3] = Acid dissociation constants by potentiometric (pH) titration; format: physicochemical; settings: for pK1 / pK2 / pK3 / pK4: ionic strength 2 M (NaNO3)
# Protocol: as §2
# In addition, the thermodynamics of protonation of the thermodynamically-unstable complexing agents of the present invention was investigated by potentiometric (pH) titration.
# The acidity constants of the thermodynamically-unstable complexing agents are important in the interpretation of metal ion complexation studies, and also serve as a preliminary indicator of metal ion complex stability and conformation. TABLE III summarizes the acid dissocation constants (pKa) of three substituted diphosphonic acids of the present invention. The acid dissociation constants of oxalic and phosphoric acids are included for comparison.
# Metal ion complexation with the thermodynamically-unstable complexing agent was investigated using the solvent extraction distribution ratio method. The medium used in all of the protonation and complexation studies was 2.0M NaNO3 /HNO3. The relatively high ionic strength of this medium was utilized in order to minimize interferences due to activity coefficient changes. Data interpretation in all experiments was accomplished by the application of a generic least-squares program written in BASIC. The program applies a Newton-Raphson type iterative process to the data and minimizes the sum of squares of the residuals. The generic program was adapted to several different forms to fit distribution ratio lowering (Do/D) vs. free ligand concentration measurements, and p (average proton number) data from potentiometric titrations.
# [4] = Aqueous solubility of metal ion complexes; format: physicochemical
# Protocol: as §1, §2
# [5] = Autodecomposition / storage stability at room or ambient temperature; format: physicochemical
# [6] = Removal of uranium from groundwater, supported liquid membrane-based process; settings: 60° to 70° C. overnight, strip solution with uranium
# Text: Aqueous solutions of the thermodynamically-unstable complexing agents of the present invention can be used in commercially available supported liquid membrane-based modules to strip metal ion contaminants from aqueous solution. Other devices using a porous membrane separating means can also be used. In general the aqueous solution containing uranium is in contact with one side of the porous membrane and the aqueous solution of the complexing agent is in contact with the other. A known organic extractant is permeated into the pores of the membrane to carry the metal ions from one side to the other. The aqueous solution of the complexing agent strips metal ions from the organic extractant in the pores, driving the extraction "reaction" toward removal of metal ions from the solution to be decontaminated.
# Aqueous solutions of the thermodynamically-unstable complexing agent described in this application are useful as stripping agents in a supported liquid membrane-based process for removal of uranium contaminants from groundwater. In this process, groundwater containing 10^-4 M uranium is acidified to pH of 2 by addition of small amounts of sulfuric acid and passed through porous polypropylene hollow fibers in a supported liquid membrane module. The pores of the membrane are filled with 0.1M bis(2,4,4-trimethylpentyl)phosphinic acid in n-dodecane. […]
# Dissolution of Goethite = settings: 0.5M solution, 100 mg Goethite, 80° C., four hours
# Text: One difficulty, is to ensure contact with ions "embedded" in the surface to be decontaminated. This usually requires destruction or dissolution of a surface oxide layer when the surface is metal. […] This oxide of iron is considered one of the more difficult to penetrate.
smiles,measurement,setting,value
"O=C(O)C(=O)O [Oxalic Acid, oxalic acid]",pK2,[1],3.55
"CC(O)(P(=O)(O)O)P(=O)(O)O [HEDPA, 1-hydroxyethane-1,1-diphosphonic acid, reference compound]",resistance to degradation,[2],ability to resist decomposition
same,resistance to degradation,[2]; listed as compound VIII,resisted degradation under mild thermal and/or oxidation conditions
same,pK1,[3],1.53
same,pK2,[3],2.16
same,pK3,[3],6.18
same,pK4,[3],9.09
same,aqueous solubility of neodymium (III) complexes,[4]; acid media,only moderate aqueous solubilities
same,aqueous solubility of thorium (IV) complexes,[4]; acid media,only moderate aqueous solubilities
"O=P(O)(O)C(O)(CO)P(=O)(O)O [DHEDPA, 1,2-dihydroxyethane-1,1-diphosphonic acid]",time to total decomposition,"[2]; free acid form, boiling 8M HNO3",about 3 hours
same,decomposition,"[2]; free acid form, hydrogen peroxide at about 60° C.",totally decomposes
same,acid strength (in words),[3]; TABLE III comparison,strongest acid
same,pK1,[3],0.91
same,pK2,[3],1.59
same,pK3,[3],5.82
same,pK4,[3],7.97
same,products of autodecomposition,[5]; free acid form,"water, carbon dioxide and phosphoric acid"
same,conversion on previous attempts to isolate free acid,"[5]; free acid form, as taught by prior art patent references",essentially immediate conversion
same,half-life of autodecomposition,"[5]; free acid form, room / ambient temperature",about 15 days
same,products of autodecomposition,"[5]; free acid form, listed as compound X",phosphorous and phosphoric acids
same,stability,"[5]; sodium (tetrasodium) salt form, listed as 1,2-dihydroxyethane-1,1-diphosphonic acid",stable indefinitely
"O=C(O)C(O)(P(=O)(O)O)P(=O)(O)O [compound VII, carboxyhydroxymethanediphosphonic acid]",products of autodecomposition,[5]; free acid form,"carbon dioxide, water and phosphoric acid"
same,half-life of autodecomposition (in words),"[5]; free acid form, room temperature",from about two days to about three days
"C=C(P(=O)(O)O)P(=O)(O)O [VDPA, vinylidenediphosphonic acid]",decomposition,"[2]; aqueous hydrogen peroxide, moderately elevated temperatures",decomposes within hours
same,decomposition,[2]; boiling nitric acid,decomposes within hours
same,decomposition by metal catalyzed oxidation,"[2]; hydrogen peroxide, metal catalyzed",readily decomposed
same,decomposition after complexing with a metal ion,[2]; salts of vanadium(V),can be decomposed by salts of vanadium(V) under very mild conditions
same,pK1,[3],1.41
same,pK2,[3],2.05
same,pK3,[3],5.98
same,pK4,[3],8.58
same,solubility of metal ion complexes,[4]; acidic media,very soluble
same,time of destruction by heating,[6],about 5 hours
same,Goethite dissolved,Dissolution of Goethite,40%
same,stability,[5]; free acid form,stable
same,stability,[5]; sodium (tetrasodium) salt form,stable
O=P(O)(O)C(O)(CO)P(=O)(O)O [tetrasodium salt of compound X],stability,[5]; sodium (tetrasodium) salt form,stable indefinitely at room temperature
"O=C(O)CC(=O)O [malonic acid, reference compound]",Goethite dissolved,Dissolution of Goethite,8%
